From patent US12312332B2 (Merck Sharp & Dohme LLC., priority 2019, dated 2025)

Biological target: T1, human OX2R (Homo sapiens, UniProt O43614)
T1 construct: expressed in transfected cells; host or cells: Chinese hamster ovary (CHO) cells, kept under G418 selection
T1 sequence (O43614 1-444): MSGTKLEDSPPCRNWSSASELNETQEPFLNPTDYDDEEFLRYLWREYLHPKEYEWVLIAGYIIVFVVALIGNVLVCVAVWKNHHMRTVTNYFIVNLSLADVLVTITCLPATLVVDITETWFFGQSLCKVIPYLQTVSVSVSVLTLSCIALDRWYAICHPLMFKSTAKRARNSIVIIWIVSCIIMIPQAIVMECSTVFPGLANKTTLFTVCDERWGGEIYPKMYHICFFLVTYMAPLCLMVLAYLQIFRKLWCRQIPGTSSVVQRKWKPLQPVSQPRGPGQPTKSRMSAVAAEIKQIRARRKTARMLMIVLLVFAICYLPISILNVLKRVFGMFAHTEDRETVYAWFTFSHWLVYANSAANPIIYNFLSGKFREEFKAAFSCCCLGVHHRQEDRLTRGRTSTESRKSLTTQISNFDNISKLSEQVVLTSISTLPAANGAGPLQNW
Assay: IPOne (IP-One) orexin receptor agonist assay in CHO cells expressing human OX2R
Assay type: cell-based
Conditions: for EC50: CHO cells expressing human OX2R, IP-One detection, 2 hours incubation, four parameter logistic fit, read-out: OX2R Potency, EC50; for % max agonist effect (Emax): human OX2R, percentage of sample raw value/mean max effect (reference compound at 1 uM with 100% activity)

| EC50 | % max agonist effect (Emax) | SMILES |
| --- | --- | --- |
| 736 nM | 98.8% | CS(=O)(=O)N[C@H]1CCN(c2ncccc2F)[C@H]1CO[C@H]1CC[C@@H](c2ccccc2)CC1 [Example 131, N-((2R,3S)-1-(3-fluoropyridin-2-yl)-2-((((CIS)-4-phenylcyclohexyl)oxy)methyl)pyrrolidin-3-yl)methanesulfonamide] |
| > 10000 nM | 75.3% | CS(=O)(=O)N[C@H]1CCN(c2ccc(C#N)cn2)[C@H]1CO[C@H]1CC[C@@H](c2ccccc2)CC1 [Example 132, N-((2R,3S)-1-(5-cyanopyridin-2-yl)-2-((((CIS)-4-phenylcyclohexyl)oxy)methyl)pyrrolidin-3-yl)methanesulfonamide] |
| 993 nM | 100.3% | CS(=O)(=O)N[C@H]1CCN(c2cncc(C#N)c2)[C@H]1CO[C@H]1CC[C@@H](c2ccccc2)CC1 [Example 133, N-((2R,3S)-1-(5-cyanopyridin-3-yl)-2-((((CIS)-4-phenylcyclohexyl)oxy)methyl)pyrrolidin-3-yl)methanesulfonamide] |
| 20.7 nM | 101.7% | CS(=O)(=O)N[C@H]1CCN(c2ccc[n+]([O-])c2)[C@H]1CO[C@H]1CC[C@@H](c2ccccc2)CC1 [Example 134] |
|  | 101.1% | CS(=O)(=O)N[C@H]1CCN(c2ncccc2O)[C@H]1CO[C@H]1CC[C@@H](c2ccccc2)CC1 [Example 135, N-((2R,3S)-1-(3-hydroxypyridin-2-yl)-2-((((CIS)-4-phenylcyclohexyl)oxy)methyl)pyrrolidin-3-yl)methanesulfonamide] |
| 164 nM | 100.6% | CS(=O)(=O)N[C@H]1CCN(c2ncccc2C#N)[C@H]1CO[C@H]1CC[C@@H](c2ccccc2)CC1 [Example 136, N-((2R,3S)-1-(3-cyanopyridin-2-yl)-2-((((CIS)-4-phenylcyclohexyl)oxy)methyl)pyrrolidin-3-yl)methanesulfonamide] |
|  | 100.5% | CS(=O)(=O)N[C@H]1CCN(c2ncccc2O)[C@H]1CO[C@H]1CC[C@@H](c2ccccc2)CC1 [Example 137, N-((2R,3S)-1-(3-hydroxypyridin-2-yl)-2-((((CIS)-4-phenylcyclohexyl)oxy)methyl)pyrrolidin-3-yl)methanesulfonamide] |
| 72.1 nM | 99.8% | CS(=O)(=O)N[C@H]1CCN(c2cc(C#N)ccn2)[C@H]1CO[C@H]1CC[C@@H](c2ccccc2)CC1 [Example 138, N-((2R,3S)-1-(4-cyanopyridin-2-yl)-2-((((CIS)-4-phenylcyclohexyl)oxy)methyl)pyrrolidin-3-yl)methanesulfonamide] |
| 1400 nM | 68.5% | CS(=O)(=O)N[C@H]1CCN(c2cccc(C#N)n2)[C@H]1CO[C@H]1CC[C@@H](c2ccccc2)CC1 [Example 139, N-((2R,3S)-1-(6-cyanopyridin-2-yl)-2-((((CIS)-4-phenylcyclohexyl)oxy)methyl)pyrrolidin-3-yl)methanesulfonamide] |
| 299 nM | 98.8% | CS(=O)(=O)N[C@H]1CCN(c2cc(OC(F)F)c(F)cn2)[C@H]1CO[C@H]1CC[C@@H](c2ccccc2)CC1 [Example 140, N-((2R,3S)-1-(4-(difluoromethoxy)-5-fluoropyridin-2-yl)-2-((((CIS)-4-phenylcyclohexyl)oxy)methyl)pyrrolidin-3-yl)methanesulfonamide] |
| 7.1 nM | 100.2% | COc1cccnc1N1CC[C@H](NS(C)(=O)=O)[C@@H]1CO[C@H]1CC[C@@H](c2ccccc2)CC1 [Example 141, N-((2R,3S)-1-(3-methoxypyridin-2-yl)-2-((((CIS)-4-phenylcyclohexyl)oxy)methyl)pyrrolidin-3-yl)methanesulfonamide] |
| > 10000 nM | 15.8% | CS(=O)(=O)N[C@H]1CCN(c2cc(C(F)F)cc(C(F)F)n2)[C@H]1CO[C@H]1CC[C@@H](c2ccccc2)CC1 [Example 142, N-((2R,3S)-1-(4,6-bis(difluoromethyl)pyridin-2-yl)-2-((((CIS)-4-phenylcyclohexyl)oxy)methyl)pyrrolidin-3-yl)methanesulfonamide] |
| 1820 nM | 95.6% | CS(=O)(=O)N[C@H]1CCN(c2cc(C(F)F)ccn2)[C@H]1CO[C@H]1CC[C@@H](c2ccccc2)CC1 [Example 143, N-((2R,3S)-1-(4-(difluoromethyl)pyridin-2-yl)-2-((((CIS)-4-phenylcyclohexyl)oxy)methyl)pyrrolidin-3-yl)methanesulfonamide] |
| 794 nM | 98% | Cc1ccnc(N2CC[C@H](NS(C)(=O)=O)[C@@H]2CO[C@H]2CC[C@@H](c3ccccc3)CC2)c1 [Example 144, N-((2R,3S)-1-(4-methylpyridin-2-yl)-2-((((CIS)-4-phenylcyclohexyl)oxy)methyl)pyrrolidin-3-yl)methanesulfonamide] |
| 9.8 nM | 100.6% | CS(=O)(=O)N[C@H]1CCN(c2ccc(C#N)nc2)[C@H]1CO[C@H]1CC[C@@H](c2ccccc2)CC1 [Example 145, N-((2R,3S)-1-(6-cyanopyridin-3-yl)-2-((((CIS)-4-phenylcyclohexyl)oxy)methyl)pyrrolidin-3-yl)methanesulfonamide] |
| 1830 nM | 84.6% | COc1cccc(N2CC[C@H](NS(C)(=O)=O)[C@@H]2CO[C@H]2CC[C@@H](c3ccccc3)CC2)c1 [Example 146, N-((2R,3S)-1-(3-methoxyphenyl)-2-((((CIS)-4-phenylcyclohexyl)oxy)methyl)pyrrolidin-3-yl)methanesulfonamide] |
| > 10000 nM | 74.1% | CS(=O)(=O)N[C@H]1CCN(c2cccc(C#N)c2)[C@H]1CO[C@H]1CC[C@@H](c2ccccc2)CC1 [Example 147, N-((2R,3S)-1-(3-cyanophenyl)-2-((((CIS)-4-phenylcyclohexyl)oxy)methyl)pyrrolidin-3-yl)methanesulfonamide] |
| 163 nM | 99.3% | CS(=O)(=O)N[C@H]1CCN(c2cccc(=O)[nH]2)[C@H]1CO[C@H]1CC[C@@H](c2ccccc2)CC1 [Example 148, N-((2R,3S)-1-(6-oxo-1,6-dihydropyridin-2-yl)-2-((((CIS)-4-phenylcyclohexyl)oxy)methyl)pyrrolidin-3-yl)methanesulfonamide] |
| 258 nM | 97.7% | CS(=O)(=O)N[C@H]1CCN(c2cncc(O)n2)[C@H]1CO[C@H]1CC[C@@H](c2ccccc2)CC1 [Example 149, N-((2R,3S)-1-(6-hydroxypyrazin-2-yl)-2-((((CIS)-4-phenylcyclohexyl)oxy)methyl)pyrrolidin-3-yl)methanesulfonamide] |
| 397 nM | 99.4% | CS(=O)(=O)N[C@H]1CCN(c2cc(O)ncn2)[C@H]1CO[C@H]1CC[C@@H](c2ccccc2)CC1 [Example 150, N-((2R,3S)-1-(6-hydroxypyrimidin-4-yl)-2-((((CIS)-4-phenylcyclohexyl)oxy)methyl)pyrrolidin-3-yl)methanesulfonamide] |
| 0.95 nM | 97.7% | CS(=O)(=O)N[C@H]1CCN(c2cc(O)c(F)cn2)[C@H]1CO[C@H]1CC[C@@H](c2ccccc2)CC1 [Example 151, N-((2R,3S)-1-(5-fluoro-4-hydroxypyridin-2-yl)-2-((((CIS)-4-phenylcyclohexyl)oxy)methyl)pyrrolidin-3-yl)methanesulfonamide] |
| 346 nM | 97.6% | COc1cccc(N2CC[C@H](NS(C)(=O)=O)[C@@H]2CO[C@H]2CC[C@@H](c3ccccc3)CC2)n1 [Example 152, N-((2R,3S)-1-(6-methoxypyridin-2-yl)-2-((((CIS)-4-phenylcyclohexyl)oxy)methyl)pyrrolidin-3-yl)methanesulfonamide] |
| 169 nM | 100.8% | CS(=O)(=O)N[C@H]1CCN(c2cc(O)ncc2F)[C@H]1CO[C@H]1CC[C@@H](c2ccccc2)CC1 [Example 153, N-((2R,3S)-1-(5-fluoro-2-hydroxypyridin-4-yl)-2-((((CIS)-4-phenylcyclohexyl)oxy)methyl)pyrrolidin-3-yl)methanesulfonamide] |
| 52.3 nM | 100.5% | CS(=O)(=O)N[C@H]1CCN(c2cc[nH]c(=O)c2)[C@H]1CO[C@H]1CC[C@@H](c2ccccc2)CC1 [Example 154, N-((2R,3S)-1-(2-oxo-1,2-dihydropyridin-4-yl)-2-((((CIS)-4-phenylcyclohexyl)oxy)methyl)pyrrolidin-3-yl)methanesulfonamide] |
| 1860 nM | 94.4% | CS(=O)(=O)N[C@H]1CCN(c2cccc(O)c2)[C@H]1CO[C@H]1CC[C@@H](c2ccccc2)CC1 [Example 155, N-((2R,3S)-1-(3-hydroxyphenyl)-2-((((CIS)-4-phenylcyclohexyl)oxy)methyl)pyrrolidin-3-yl)methanesulfonamide] |
| 0.45 nM | 100.8% | C[C@@H]1C[C@H](NS(=O)(=O)N(C)C)[C@H](CO[C@H]2CC[C@@H](c3cccc(F)c3)CC2)N1c1nccc(O)c1F [Example 156, N′-((2R,3S,5R)-1-(3-fluoro-4-hydroxypyridin-2-yl)-2-((((CIS)-4-(3-fluorophenyl)cyclohexyl)oxy)methyl)-5-methylpyrrolidin-3-yl)-N,N-dimethyl-sulfamide] |
